Assay results taken from patent publication US8901314B2, “Substituted pyrazoles as N-type calcium channel blockers” (Janssen Pharmaceutica NV, priority 2012, dated 2014).

Key:
[1] = biological target: α1B (Cav2.2), β3 and α2δ subunits of the N-type calcium channel (stable HEK cell line) (Rattus norvegicus, UniProt Q02294); test: Calcium-dye indicator assay (FDSS, KCl depolarization); type: cell-based; conditions: calcium mobilization response to 50 mM KCl; six-point concentration-response
Procedure, shortened: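 HEK cells stably co-expressing α1B, β3 and α2δ subunits, loaded with calcium dye, exposed to compound for 5 min before 50 mM KCl depolarization, 3 min further read on FDSS. Maximal fluorescence normalized to KCl maximum and buffer minimum; IC50 by sigmoidal nonlinear regression.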

[2] = tested on: Cav2.2 (N-type calcium channel; α1B, α2δ and β3 subunits stably expressed in HEK293 cells); test: Automated electrophysiology assay (QPatch-HT patch clamp); type: cell-based; conditions: 0.1 μM; for QPatch % Inhibition, High Freq: high frequency stimulation (15th pulse of 5 Hz train); for QPatch % Inhibition, Low Freq: low frequency stimulation (1st pulse of train)
Procedure, shortened: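 Whole-cell automated patch clamp of HEK293 cells stably expressing α1B, α2δ-1 and β3, with 10 mM Ba²⁺/TEA external solution and CsCl internal solution. From −80 mV, trains of 15 pulses to +20 mV at 5 Hz every 30 s. Pulse 1 and pulse 15 currents normalized to the no-compound control period, with CdCl2 used to zero the current.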

SMILES | IC50 [1] [nM] | QPatch % Inhibition, High Freq [2] [%] | QPatch % Inhibition, Low Freq [2] [%]
COc1ccccc1-n1nc(C2CC(C)(C)OC(C)(C)C2)cc1-c1ccc(C)nc1 [Compound 23, 5-[1-(2-Methoxyphenyl)-3-(2,2,6,6-tetramethyltetrahydro-2H-pyran-4-yl)-1H-pyrazol-5-yl]-2-methylpyridine] | 6.2 | −8 | −19
COc1ccc(-n2nc(C3CCOC(C)(C)C3)cc2-c2ccc(Cl)cc2)c(C)c1 (stereo not drawn) [Compound 75, 5-(4-Chlorophenyl)-3-(2,2-dimethyltetrahydro-2H-pyran-4-yl)-1-(4-methoxy-2-methylphenyl)-1H-pyrazole] | 80 | 67 | 45
CC1(C)CC(c2cc(-c3ccc(Cl)cc3)n(-c3ccccc3[N+](=O)[O-])n2)CC(C)(C)O1 [Compound 65, 5-(4-Chlorophenyl)-1-(2-nitrophenyl)-3-(2,2,6,6-tetramethyltetrahydro-2H-pyran-4-yl)-1H-pyrazole] | 7.8 | 50 | 44
COc1ccc(-c2cc(C3CC(C)(C)OC(C)(C)C3)nn2-c2ccccc2OC)cn1 [Compound 13, 2-Methoxy-5-[1-(2-methoxyphenyl)-3-(2,2,6,6-tetramethyltetrahydro-2H-pyran-4-yl)-1H-pyrazol-5-yl]pyridine] | 4.9 | 47.5 | 32
COc1ccccc1-n1nc(C2CC(C)(C)OC(C)(C)C2)c(Br)c1-c1ccc(Cl)cc1 [Compound 70, 4-Bromo-5-(4-chlorophenyl)-1-(2-methoxyphenyl)-3-(2,2,6,6-tetramethyltetrahydro-2H-pyran-4-yl)-1H-pyrazole] | 24 | 25 | 24
COc1ccccc1-n1nc(C2CC(C)(C)OC(C)(C)C2)cc1-c1ccc(N(C)C)nc1 [Compound 31, 5-[1-(2-Methoxyphenyl)-3-(2,2,6,6-tetramethyltetrahydro-2H-pyran-4-yl)-1H-pyrazol-5-yl]-N,N-dimethylpyridin-2-amine] | 3.5 | 1 | 4
COc1ccccc1-n1nc(C2C[C@@H](C)O[C@H](C)C2)cc1-c1ccccc1 (relative stereo) [Compound 67, 3-[(trans)-2,6-Dimethyltetrahydro-2H-pyran-4-yl]-1-(2-methoxyphenyl)-5-phenyl-1H-pyrazole] | 12 | 65 | 55
COc1ccccc1-n1nc(C2CC(C)(C)OC(C)(C)C2)cc1-c1ccc(Cl)cc1F [Compound 3, 5-(4-Chloro-2-fluorophenyl)-1-(2-methoxyphenyl)-3-(2,2,6,6-tetramethyltetrahydro-2H-pyran-4-yl)-1H-pyrazole] | 1 | 42 | 34
CN(C)c1ccccc1-n1nc(C2CC(C)(C)OC(C)(C)C2)cc1-c1ccc(Cl)cc1 [Compound 49, 2-[5-(4-Chlorophenyl)-3-(2,2,6,6-tetramethyltetrahydro-2H-pyran-4-yl)-1H-pyrazol-1-yl]-N,N-dimethylaniline] | 5.5 | 47 | 33
CNc1ccccc1-n1nc(C2CC(C)(C)OC(C)(C)C2)cc1-c1ccc(Cl)cc1 [Compound 60, 2-[5-(4-Chlorophenyl)-3-(2,2,6,6-tetramethyltetrahydro-2H-pyran-4-yl)-1H-pyrazol-1-yl]-N-methylaniline] | 7 | 48 | 31
COc1ccccc1-n1nc(C2CCOC(C)(C)C2)cc1-c1ccc(Cl)cc1 (stereo not drawn) [Compound 62, 5-(4-Chlorophenyl)-3-(2,2-dimethyltetrahydro-2H-pyran-4-yl)-1-(2-methoxyphenyl)-1H-pyrazole] | 2 | 67 | 45
COc1ccccc1-n1nc(C2CC(C)(C)OC(C)(C)C2)cc1-c1ccc(C#N)cc1 [Compound 2, 4-[1-(2-Methoxyphenyl)-3-(2,2,6,6-tetramethyltetrahydro-2H-pyran-4-yl)-1H-pyrazol-5-yl]-benzonitrile] | 1.1 | 53.5 | 56.5
CCNc1ccccc1-n1nc(C2CC(C)(C)OC(C)(C)C2)cc1-c1ccc(Cl)cc1 [Compound 66, 2-[5-(4-Chlorophenyl)-3-(2,2,6,6-tetramethyltetrahydro-2H-pyran-4-yl)-1H-pyrazol-1-yl]-N-ethylaniline] | 9.4 | 25 | 7
CCOC(=O)c1ccc(-c2cc(C3CC(C)(C)OC(C)(C)C3)nn2-c2ccccc2OC)cc1 [Compound 17, Ethyl 4-[1-(2-methoxyphenyl)-3-(2,2,6,6-tetramethyltetrahydro-2H-pyran-4-yl)-1H-pyrazol-5-yl]benzoate] | 5.1 | 82 | 84
CCN(CC)c1ccccc1-n1nc(C2CC(C)(C)OC(C)(C)C2)cc1-c1ccc(Cl)cc1 [Compound 73, 2-[5-(4-Chlorophenyl)-3-(2,2,6,6-tetramethyltetrahydro-2H-pyran-4-yl)-1H-pyrazol-1-yl]-N,N-diethylaniline] | 50 | 1 | −18
COc1ccccc1-n1nc(C2CC(C)(C)OC(C)(C)C2)cc1C1=CCC(C)(C)CC1 [Compound 8, 5-(4,4-Dimethylcyclohex-1-en-1-yl)-1-(2-methoxyphenyl)-3-(2,2,6,6-tetramethyltetrahydro-2H-pyran-4-yl)-1H-pyrazole] | 1.6 | 40 | 37
COc1ccccc1-n1nc(C2=C[C@H](C)O[C@@H](C)C2)cc1-c1ccc(Cl)cc1 (relative stereo) [Compound 96, 5-(4-Chlorophenyl)-3-[(trans)-2,6-dimethyl-3,6-dihydro-2H-pyran-4-yl]-1-(2-methoxyphenyl)-1H-pyrazole] | 8.2 | 29 | −20
COc1ccccc1-n1nc(C2CC(C)(C)OC(C)(C)C2)cc1-c1cccs1 [Compound 26, 1-(2-Methoxyphenyl)-3-(2,2,6,6-tetramethyltetrahydro-2H-pyran-4-yl)-5-thiophen-2-yl-1H-pyrazole] | 12 | 42 | 24
COc1ccccc1-n1nc(C2CC(C)(C)OC(C)(C)C2)cc1-c1ccc(OCCN2CCOCC2)cc1 [Compound 72, 4-(2-{4-[1-(2-Methoxyphenyl)-3-(2,2,6,6-tetramethyltetrahydro-2H-pyran-4-yl)-1H-pyrazol-5-yl]phenoxy}ethyl)morpholine] | 38 | 11 | 4
COc1ccccc1-n1nc(C2CC(C)(C)OC(C)(C)C2)cc1-c1ccc(Cl)s1 [Compound 14, 5-(5-Chlorothiophen-2-yl)-1-(2-methoxyphenyl)-3-(2,2,6,6-tetramethyltetrahydro-2H-pyran-4-yl)-1H-pyrazole] | 6.2 | 74.5 | 63
COc1ccccc1-n1nc(C2CC(C)(C)OC(C)(C)C2)cc1-c1ccc(Cl)cc1 [Compound 1, 5-(4-Chloro-phenyl)-1-(2-methoxy-phenyl)-3-(2,2,6,6-tetramethyl-tetrahydro-pyran-4-yl)-1H-pyrazole] | 1.7 | 63 | 58
COc1ccccc1-n1nc(C2CC(C)(C)OC(C)(C)C2)cc1-c1ccc(C(C)O)cc1 (stereo not drawn) [Compound 44, 1-{4-[1-(2-Methoxyphenyl)-3-(2,2,6,6-tetramethyltetrahydro-2H-pyran-4-yl)-1H-pyrazol-5-yl]-phenyl}-ethanol] | 19 | 6 | 20
